Measurements: patent publication US12077537B2 (Gilead Sciences, Inc., priority 2020, dated 2024)

tested on: HIV-IIIb; assay: Antiviral assay in MT4 cells; type: cell-based; details: Human immunodeficiency virus 1, MT4, 120 h; MT-4 cells mixed with HIV-IIIb at m.o.i. 0.003; 5 days at 37° C.; CellTiter-Glo luminescence; 50% decrease in signal, a measure of HIV-1 replication
Procedure, shortened: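 MT-4 cells were infected with HIV-IIIb at m.o.i. 0.003 for 1 hour, then added to 3-fold serially diluted compound (10 concentrations, quadruplicate) in medium with 10% FBS. After 5 days at 37° C, cell viability was read by CellTiter-Glo chemiluminescence.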

Going from `Cc1nc2nc([C@H](Cc3cc(F)cc(F)c3)NC(=O)Cn3nc(C(F)F)c4c3C(F)(F)[C@@H]3C[C@H]43)c(-c3ccc(Cl)c4c(NS(C)(=O)=O)nn(C)c34)cc2[nH]1` [Example 99, N—((S)-1-(6-(4-chloro-1-methyl-3-(methylsulfonamido)-1H-indazol-7-yl)-2-methyl-1H-imidazo[4,5-b]pyridin-5-yl)-2-(3,5-difluorophenyl)ethyl)-2-((3bS,4aR)-3-(difluoromethyl)-5,5-difluoro-3b,4,4a,5-tetrahydro-1H-cyclopropa[3,4]cyclopenta[1,2-c]pyrazol-1-yl)acetamide] to `Cn1nc(N)c2c(Cl)ccc(-c3cc4sc(NCC(C)(C)O)nc4nc3[C@H](Cc3cc(F)cc(F)c3)NC(=O)Cn3nc(C(F)F)c4c3C(F)(F)[C@@H]3C[C@H]43)c21` [Example 116, N—((S)-1-(6-(3-amino-4-chloro-1-methyl-1H-indazol-7-yl)-2-((2-hydroxy-2-methylpropyl)amino)thiazolo[4,5-b]pyridin-5-yl)-2-(3,5-difluorophenyl)ethyl)-2-((3bS,4aR)-3-(difluoromethyl)-5,5-difluoro-3b,4,4a,5-tetrahydro-1H-cyclopropa[3,4]cyclopenta[1,2-c]pyrazol-1-yl)acetamide], the EC50 rises from 1.6 nM to 3.5 nM (2.2-fold).

`NC(=O)c1nc2nc(C(Cc3cc(F)cc(F)c3)NC(=O)Cn3nc(C(F)(F)F)c4c3C(F)(F)[C@@H]3C[C@H]43)c(-c3ccc(F)c(C(N)=O)c3)cc2s1` (stereo partly drawn) [Example 119, 6-(3-carbamoyl-4-fluorophenyl)-5-(1-(2-((3bS,4aR)-5,5-difluoro-3-(trifluoromethyl)-3b,4,4a,5-tetrahydro-TH-cyclopropa[3,4]cyclopenta[1,2-c]pyrazol-1-yl)acetamido)-2-(3,5-difluorophenyl)ethyl)thiazolo[4,5-b]pyridine-2-carboxamide] and `CC1(O)CN(c2nc3nc([C@H](Cc4cc(F)cc(F)c4)NC(=O)Cn4nc(C(F)(F)F)c5c4C(F)(F)[C@@H]4C[C@H]54)c(-c4ccc(F)c(C(N)=O)c4)cc3s2)C1` [Compound 32, 5-(5-((S)-1-(2-((3bS,4aR)-5,5-difluoro-3-(trifluoromethyl)-3b,4,4a,5-tetrahydro-1H-cyclopropa[3,4]cyclopenta[1,2-c]pyrazol-1-yl)acetamido)-2-(3,5-difluorophenyl)ethyl)-2-(3-hydroxy-3-methylazetidin-1-yl)thiazolo[4,5-b]pyridin-6-yl)-2-fluorobenzamide] are within 1.5-fold of each other in EC50: 72 nM for the first, 60.6 nM for the second.

First: CC1(O)CN(c2nc3nc([C@H](Cc4cc(F)cc(F)c4)NC(=O)Cn4nc(C(F)(F)F)c5c4C(F)(F)[C@@H]4C[C@H]54)c(-c4ccc5c(c4)C(=O)NC54CC4)cc3s2)C1 [Compound 43, 2-((3bS,4aR)-5,5-difluoro-3-(trifluoromethyl)-3b,4,4a,5-tetrahydro-1H-cyclopropa[3,4]cyclopenta[1,2-c]pyrazol-1-yl)-N—((S)-2-(3,5-difluorophenyl)-1-(2-(3-hydroxy-3-methylazetidin-1-yl)-6-(3′-oxospiro[cyclopropane-1,1′-isoindolin]-5′-yl)thiazolo[4,5-b]pyridin-5-yl)ethyl)acetamide]
Second: NC(=O)c1cc(-c2cc3sc(N4C[C@@H]5C[C@H]4CN5C4COC4)nc3nc2[C@H](Cc2cc(F)cc(F)c2)NC(=O)Cn2nc(C(F)(F)F)c3c2C(F)(F)[C@@H]2C[C@H]32)ccc1F [Compound 27, 5-(5-((S)-1-(2-((3bS,4aR)-5,5-difluoro-3-(trifluoromethyl)-3b,4,4a,5-tetrahydro-1H-cyclopropa[3,4]cyclopenta[1,2-c]pyrazol-1-yl)acetamido)-2-(3,5-difluorophenyl)ethyl)-2-((1S,4S)-5-(oxetan-3-yl)-2,5-diazabicyclo[2.2.1]heptan-2-yl)thiazolo[4,5-b]pyridin-6-yl)-2-fluorobenzamide]
The EC50 of the first is 2.3-fold lower: 22.5 nM for the first, 52.3 nM for the second. The first is the more potent here.
